The text below walks through data of ChEMBL document CHEMBL4382233, “Discovery of novel arylethenesulfonyl fluorides as potential candidates against methicillin-resistant of Staphylococcus aureus (MRSA) for overcoming multidrug resistance of bacterial infections” (2019).

As usually defined, the MIC99 is an inhibitory concentration at the 99% level, which refers to growth in some studies and to a panel of isolates in others. The low end stands for greater potency, the high end for weaker potency.

In brackets after ≈: the same amount, converted by molar mass. Activity calls are given as the source filed them. The calls are words filed in the database; no cut-off is given here.

Assay [1] has as its system Staphylococcus haemolyticus. The experiment in a line: Antibacterial activity against methicillin-resistant Staphylococcus haemolyticus assessed as zone of inhibition at 10 ug/mL after 24 hrs by agar disc diffusion method. Format: functional. The following applies: read-out: IZ. (In general: Agar diffusion results depend on both activity and mobility in agar.)
The test system of assay [2] is Staphylococcus aureus. The experiment in a line: Antibacterial activity against methicillin-resistant Staphylococcus aureus assessed as zone of inhibition at 10 ug/mL after 24 hrs by agar disc diffusion method. It counts as functional. As to conditions: read-out: IZ.
For assay [3], the system named is Staphylococcus epidermidis. The experiment in a line: Antibacterial activity against methicillin-resistant Staphylococcus epidermidis after overnight incubation by micro broth dilution analysis. Format: functional. (Dilution methods test growth across graded concentrations, often in twofold steps.)
The test system of assay [4] is Staphylococcus aureus. The assay can be described thus: Antibiofilm activity against methicillin-resistant Staphylococcus aureus at 2 times MIC after 24 hrs by crystal violet staining-based UV-visible spectrophotometric analysis. Format: functional, organism-based.
The test system of assay [5] is Staphylococcus aureus. The experiment in a line: Antibacterial activity against methicillin-resistant Staphylococcus aureus after overnight incubation by micro broth dilution analysis. Format: functional.
Assay [6] relates to Staphylococcus epidermidis. The assay can be described thus: Antibacterial activity against methicillin-resistant Staphylococcus epidermidis assessed as zone of inhibition at 10 ug/mL after 24 hrs by agar disc diffusion method. Format: functional. The following applies: read-out: IZ.
The subject of assay [7] is Staphylococcus haemolyticus. The assay can be described thus: Antibacterial activity against methicillin-resistant Staphylococcus haemolyticus after overnight incubation by micro broth dilution analysis. Format: functional.
In assay [8] the test system is Staphylococcus aureus. The experiment in a line: Antibiofilm activity against methicillin-resistant Staphylococcus aureus planktonic biofilm assessed as optical density at 492 nm at MIC after 24 hrs by crystal violet staining-based UV-visible spectrophotometric analysis. It counts as functional.

On to `CC1(C)S[C@@H]2[C@H](NC(=O)[C@H](N)c3ccccc3)C(=O)N2[C@H]1C(=O)O` [AMPICILLIN], for which the zone of inhibition at 10 µg/mL was determined as 7.6 mm in assay [1], 9.95 mm in assay [2] and 11.7 mm in assay [6]. Besides, the values for the MIC99 in assay [3], in assay [5] and in assay [7] were 7.15 µg/mL (≈ 20.5 µM), 0.12 µg/mL (≈ 0.343 µM) and 10.1 µg/mL (≈ 28.9 µM), respectively. In assay [4], the result was Active. Moreover, the OD in assay [8] turned out to be 0.745.
